Laboratory results as given in US12708620B2, “Prodrugs and medical uses thereof” (priority 2018, dated 2026).
Where two headings read alike, the source gives them in different places.

Tests used:
[1] = preliminary toxicology study, intravenous administration; assay type: in vivo, dog
Description: Preliminary toxicology studies of the intravenous administration of Cpd.11 Ms in rats and dogs according to a dosing regimen consisting of 3 consecutive days of administration in a 3 weekly cycle (QDx3/cycle) have shown that potential haematological toxicity in tissues such as the bone marrow, the thymus and lymph nodes (known to have hypoxic niches) can be minimized at dosages at or below 400 mg/kg in the rat and at or below 100 mg/kg in the dog. As such, these levels correspond to 2360 mg/m^2 and 2000 mg/m^2, respectively, in human subjects. […] Alternative dosing regimens also include weekly administration for up to 3 or 4 consecutive times of each 3 or 4 weekly cycle. In addition, also an initial dose of QDx3 or QDx5 could be combined with less frequent administration schedules that may still allow a therapeutic effect over tumor growth and development, such as up to 3 or 4 weekly dosages in 3 to 4 weekly cycles, or once a month (or every three-four weeks) schedules that be applied with or without the parallel treatment with the appropriate standard-of-care protocols.

HCC1937 = test: resazurin-based potency assay, normoxia vs anoxia; assay type: cell-based, human; details: for IC50: Homo sapiens, 4 h exposure then 96 h
Description: (§1) The IC50 values were obtained using the resazurin-based potency assay under anoxic (<0.01% O2) and/or normoxic conditions (21% O2). The hypoxia cytotoxicity ratio (HCR) is calculated as the ratio of IC50 value […] (HCR=IC50 normoxia/IC50 anoxia).
(§2) For anoxic condition, the complete medium for each cell line (25 ml in a T25 or 80 ml in a T80) was equilibrated in the anoxic chamber 48 h before use to allow an as large as possible interchange between media and atmosphere, agitating the flask once a day and just before use. The 96-well plates for cell seeding and the 96-well plates for preparation of a mother plate containing the compound to be tested (e.g. Cpd.11 Ms) at appropriate concentrations as well as disposable reagent reservoirs and pipet tips that are required for cell seeding under anoxic conditions were placed in anoxia at least 72 h before use. The mother plate for treatment of the cells under anoxia was prepared with anoxic medium and in anoxia pre-incubated plastics, the mother plate for treatment of the cells in normoxia was prepared with normoxic medium in a standard cell culture hood.
(§3) Cell seeding was performed starting from a cell suspension (70% confluent flasks of cells). Appropriate cell numbers/volumes were used at the pre-determined cell density (typically 100 μl/well) as determined by performing a growth curve experiment were calculated. For anoxic conditions, the appropriate number of cells was transferred to the anoxic chamber and diluted to the appropriate cell concentration in anoxic complete medium. The cells were allowed to adhere for 2 hours in the anoxic chamber at 37° C. In normoxic conditions, usual cell seeding and complete medium protocols were used (in a volume of 100 μl/well in 96-well plates). The cells were allowed to adhere for 2 hours at 37° C. in a regular cell culture CO2 incubator. In both conditions, the remaining empty wells in 96-well plates were filled with 200 μl anoxic or normoxic medium to prevent evaporation.
(§4) Fresh Cpd.11 Ms stock solution was thawed just before the experiment and shielded from the light. A 96-well microtiter plate was filled with 176.4 μl of complete normoxic (RT) or anoxic medium in the first column and 120 μl of complete normoxic or anoxic medium with 2% DMSO for the other columns of wells. 3.6 μl per well of the compound stock solution (Cpd.11, Cpd.11 Ms, Cpd.11c, or Cpd.11d; 150 mM) was added to the first column. The solution of the first column was pipetted up and down and 60 μl was transferred to the second column to perform 1/3 serial dilutions pipetting up and down 3 times between each transfer. This was repeated until the 11th column. No Cpd.11 Ms was added to the 12th column. The plate was prepared no longer than 30 minutes before use and protected from direct light exposure. Two hours after seeding the cells, 100 μl of the mother plate was added to each well and plates remained for 4 h in the anoxic chamber or in cell culture incubator at 37° C. After 4 h, the plate in the anoxic chamber was transferred to normoxia. Visual inspection of all plates (few random wells per plate) under microscope was performed and medium was removed from all plates by aspiration. Cells were washed once with 200 μl PBS (RT) and 200 μl of fresh normoxic complete medium (RT) was added to each well (including all wells without cells). All plates were incubated for 96 hours in normoxia at 37° C. in a standard cell culture incubator.
(§5) For the cell viability assay, the resazurin final working solution was prepared freshly by diluting the resazurin stock solution (0.1 mg/ml) 1/10 in complete medium (RT) of the respective cell lines to obtain a final concentration of 0.01 mg/ml resazurin. After 96 hours incubation in normoxia, a visual inspection of all the plates (few random wells per plate) was performed under the microscope and the medium in each well was removed by aspiration. […]

BxPC-3 = test: resazurin-based potency assay, normoxia vs anoxia; assay type: cell-based, human; details: for IC50: Homo sapiens, 4 h exposure then 96 h
Description: as §1, §2, §3, §4, §5

DMS114 = test: resazurin-based potency assay, normoxia vs anoxia; assay type: cell-based, human; details: for IC50: Homo sapiens, 4 h exposure then 96 h
Description: as §1, §2, §3, §4, §5

NCI-H1650 = test: resazurin-based potency assay, normoxia vs anoxia; assay type: cell-based, human; details: for IC50: Homo sapiens, 4 h exposure then 96 h
Description: as §1, §2, §3, §4, §5

MDA-MB-231 = test: resazurin-based potency assay, normoxia vs anoxia; assay type: cell-based, human; details: for IC50: Homo sapiens, 4 h exposure then 96 h
Description: as §1, §2, §3, §4, §5

BT-474 = test: resazurin-based potency assay, normoxia vs anoxia; assay type: cell-based, human; details: for IC50: Homo sapiens, 4 h exposure then 96 h
Description: as §1, §2, §3, §4, §5

PANC-1 = test: resazurin-based potency assay, normoxia vs anoxia; assay type: cell-based, human; details: for IC50: Homo sapiens, 4 h exposure then 96 h
Description: as §1, §2, §3, §4, §5

NCI-H1975 = test: resazurin-based potency assay, normoxia vs anoxia; assay type: cell-based, human; details: for IC50: Homo sapiens, 4 h exposure then 96 h
Description: as §1, §2, §3, §4, §5

[2] = test system: panel of cancer cell lines; test: formation rate of Cpd.11c and Cpd.11d metabolites in cancer cell lines; assay type: in vitro ADME, human
Source text: FIG. 3: cytotoxicity of Cpd.11 Ms and metabolites in normoxic and anoxic conditions in a panel of human cancer cell lines. […] The same panel of cell lines has been used to calculate the formation rate of Cpd.11c and Cpd.11d metabolites (B). A panel of human cell lines isolated from lung cancer (A-427, […], NCI-460, NCI-H1975), pancreatic cancer (Hs 766T, BxPC-3, Capan-1), and breast cancer (MDA-MB-453, SK-BR-3, EFM-19, Hs578t) has been exposed to synthetic version of Cpd.11c and Cpd.11d metabolites, that present cytotoxic properties also in normoxic conditions (C). The average plating efficiency in the drug-free control wells was 43% under normoxic and 30% under anoxic conditions.

[3] = anoxia (<0.01% O2), read-out: IC50 Average for Cpd.11Ms ANX (SD)
[4] = normoxia (21% O2), read-out: IC50 Average for Cpd.11Ms NRX (SD)

With CCN1CCN(C(=O)c2cc(N(CCBr)CCOS(C)(=O)=O)c(S(C)(=O)=O)cc2[N+](=O)[O-])CC1.CS(=O)(=O)O [Cpd.11 Ms, 4-(5-((2-bromoethyl) (2-((methylsulfonyl)oxy)ethyl)amino)-4-(methylsulfonyl)-2-nitrobenzoyl)-1-ethylpiperazin-1-ium methanesulfonate] the “dosage at which potential haematological toxicity (bone marrow, thymus, lymph nodes) can be minimized” value ([1]; dog, intravenous, QDx3 in a 3 weekly cycle) was at most 100 mg/kg, the “corresponding level in human subjects of the dog dosage” value ([1]; from 100 mg/kg in the dog) was 2000 mg/m^2 and the “Average of HCR (SD)” value (HCC1937; HCR=IC50 normoxia/IC50 anoxia) was 28.8 (8.3). The IC50 (HCC1937; [3]) was 53.1 µM, the IC50 (HCC1937; [4]) was 1450 µM and the “Average of HCR (SD)” value (BxPC-3; HCR=IC50 normoxia/IC50 anoxia) was 22.7 (4.2). The IC50 (BxPC-3; [3]) was 68.2 µM, the IC50 (BxPC-3; [4]) was over 1500 µM and the “Average of HCR (SD)” value (DMS114; HCR=IC50 normoxia/IC50 anoxia) was 96.3 (26.2). The IC50 (DMS114; DMS-114, anoxia (<0.01% O2), read-out: IC50 Average for Cpd.11Ms ANX (SD)) was 6.2 µM, the IC50 (DMS114; DMS-114, normoxia (21% O2), read-out: IC50 Average for Cpd.11Ms NRX (SD)) was 564 µM and the “Average of HCR (SD)” value (NCI-H1650; HCR=IC50 normoxia/IC50 anoxia) was 28.2 (5.4). For the same compound, the IC50 (NCI-H1650; [3]) was 45.1 µM, the IC50 (NCI-H1650; [4]) was 1250 µM and the “Average of HCR (SD)” value (MDA-MB-231; HCR=IC50 normoxia/IC50 anoxia) was 10.4 (3.0). For the same compound, the IC50 (MDA-MB-231; [3]) was 121 µM, the IC50 (MDA-MB-231; [4]) was 1250 µM and the “Average of HCR (SD)” value (BT-474; HCR=IC50 normoxia/IC50 anoxia) was 102.6 (15.2). For the same compound, the IC50 (BT-474; [3]) was 14.8 µM, the IC50 (BT-474; [4]) was over 1500 µM and the “Average of HCR (SD)” value (PANC-1; HCR=IC50 normoxia/IC50 anoxia) was 24.0 (1.0). For the same compound, the IC50 (PANC-1; [3]) was 43.6 µM, the IC50 (PANC-1; [4]) was 1040 µM and the “Average of HCR (SD)” value (NCI-H1975; HCR=IC50 normoxia/IC50 anoxia) was 52.6 (36.4). For the same compound, the IC50 (NCI-H1975; [3]) was 28.7 µM, the IC50 (NCI-H1975; [4]) was 1140 µM and the “conversion of Cpd.11 Ms into Cpd.11c and Cpd.11d (FIG. 3B)” value [2] was “strong and rapid ratio of conversion”.
